Data: the supplement of paper PMC10307832

How the values were obtained:
Assay in all cases: relative viability (nuclei count vs DMSO), 5 days (fraction); higher = more cells survive
[1] = compound: C1=CC=C(C(=C1)C2=CC=C(C=C2)C3=CSC4=C3C(=C(C(=O)N4)C#N)O)O + CC1(C)CCC(c2ccc(Cl)cc2)=C(CN2CCN(c3ccc(C(=O)NS(=O)(=O)c4ccc(N[C@H](CCN5CCOCC5)CSc5ccccc5)c(S(=O)(=O)C(F)(F)F)c4)cc3)CC2)C1 [Navitoclax] (partner 0.5 µM)
How it was run: (§1)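 Lung cancer cell lines were seeded in 1536-well plates and dosed by pin tool the next day, with either a single drug or a fixed anchor-drug dose combined with five library-drug doses (not always all listed) spaced in √10 steps. Five days later, one step fixed the cells and stained their nuclei (final 0.05% Triton X-100, 1% formaldehyde, 1 ug/ml Hoechst), and nuclei were counted on 4× images. Relative viability is the nuclei count in treated wells divided by the count in vehicle wells, and each value is the median of duplicate plates.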

[2] = compound: C1=CC=C(C(=C1)C2=CC=C(C=C2)C3=CSC4=C3C(=C(C(=O)N4)C#N)O)O + NC(=O)Nc1cc(-c2cccc(F)c2)sc1C(=O)N[C@H]1CCCNC1 [AZD7762] (partner 0.2 µM)
How it was run: as §1

[3] = compound: CC1=CN2C(=O)C=C(N=C2C(=C1)C(C)NC3=CC=CC=C3)N4CCOCC4 [TGX 221] + CC(=O)c1c(C)c2cnc(Nc3ccc(N4CCNCC4)cn3)nc2n(C2CCCC2)c1=O [Palbociclib] (partner 0.5 µM)
How it was run: as §1

[4] = compound: O=C(CCCCCCNC(=O)c1cnc(N(c2ccccc2)c2ccccc2)nc1)NO [Ricolinostat] + CC(=O)c1c(C)c2cnc(Nc3ccc(N4CCNCC4)cn3)nc2n(C2CCCC2)c1=O [Palbociclib] (partner 0.5 µM)
How it was run: as §1

Cell Line	relative viability ([1]; first compound 0.08 µM)	relative viability ([1]; first compound 0.253 µM)	relative viability ([1]; first compound 0.8 µM)	relative viability ([1]; first compound 2.53 µM)	relative viability ([1]; first compound 8 µM)	relative viability ([2]; first compound 0.08 µM)	relative viability ([2]; first compound 0.253 µM)	relative viability ([2]; first compound 0.8 µM)	relative viability ([2]; first compound 2.53 µM)	relative viability ([2]; first compound 8 µM)	relative viability ([3]; first compound 0.08 µM)	relative viability ([3]; first compound 0.253 µM)	relative viability ([3]; first compound 0.8 µM)	relative viability ([3]; first compound 2.53 µM)	relative viability ([3]; first compound 8 µM)	relative viability ([4]; first compound 0.08 µM)	relative viability ([4]; first compound 0.253 µM)	relative viability ([4]; first compound 0.8 µM)	relative viability ([4]; first compound 2.53 µM)
PC-3 [JPC-3]	0.913	0.816	0.849	0.765	0.808	0.597	0.935	0.645	0.745	0.618	0.522	0.516	0.541	0.499	0.566	0.533	0.499	0.518	0.487
BEN	0.0583	0.07	0.0922	0.0562	0.063	0.647	0.692	0.675	0.807	0.73	0.483	0.413	0.439	0.487	0.503	0.461	0.474	0.499	0.451
NCI-H1355	1.1	1.02	0.935	0.957	0.777	0.693	0.899	0.739	0.763	0.752	0.366	0.348	0.372	0.338	0.302	0.373	0.367	0.31	0.402
NCI-H441	–	0.644	–	0.837	0.604	1.02	1.17	1.33	1.57	1.02	0.239	0.203	0.217	0.185	0.21	0.213	0.233	0.2	0.234
EKVX	0.897	1.13	1.03	0.922	0.903	0.696	0.699	0.725	0.746	0.595	0.313	0.418	0.358	0.329	0.299	0.358	0.42	0.408	0.422
HCC-44	0.909	1.09	1	0.938	0.65	1.13	1.11	1.01	1.01	1.02	1.02	1.01	1	0.933	0.991	0.91	0.935	1.01	0.964
A-427	0.999	0.951	1.01	0.957	1.02	0.672	0.81	0.746	0.776	0.716	0.542	0.546	0.513	0.504	0.516	0.503	0.531	0.474	0.457
NCI-H23	0.883	0.746	1	0.754	0.468	0.232	0.168	0.239	0.229	0.229	0.479	0.441	0.424	0.479	0.389	0.532	0.509	0.448	0.615
NCI-H2087	1.02	1.05	1.1	1.15	0.994	1.58	1.2	1.25	1.41	0.75	0.214	0.234	0.237	0.21	0.248	0.263	0.165	0.178	0.0962
HCC-78	0.826	1.02	0.754	0.943	0.708	0.682	0.744	0.638	0.502	0.551	–	0.428	0.464	0.397	0.435	–	0.438	0.484	0.479
NCI-H727	0.426	0.478	0.48	0.409	0.479	0.569	0.541	0.603	0.543	0.434	0.643	0.518	0.667	0.679	0.602	0.645	0.627	0.705	0.683
NCI-H1734	0.793	0.979	0.886	0.972	0.492	0.573	0.511	0.559	0.594	0.459	0.235	0.332	0.351	0.317	0.289	0.343	0.35	0.4	0.389
NCI-H1993	0.951	0.925	1.05	0.781	0.879	0.812	0.841	0.811	0.74	0.646	0.54	0.607	0.54	0.519	0.459	0.614	0.67	0.664	0.514
HCC-827	1	1.12	1.04	1.04	1.04	0.233	0.192	0.199	0.231	0.176	0.489	0.468	0.487	0.436	0.425	0.335	0.548	0.487	0.573
NCI-H1437	1.06	1.16	1.18	1.13	0.881	1.1	1.27	1.12	1.22	1.15	0.294	0.317	0.324	0.276	0.295	0.357	0.311	0.282	0.227
EPLC-272H	–	1.11	1.17	1.12	0.744	0.258	–	0.247	0.208	0.183	0.324	0.35	0.32	0.328	0.289	–	0.325	0.332	0.237
NCI-H2126	0.866	0.924	0.798	0.884	0.951	1.01	1.09	0.973	1.1	0.763	0.348	0.341	0.342	0.354	0.308	0.347	0.347	0.353	0.363
